Assay results taken from US20200138020A1, “MICROBICIDAL COMPOSITION” (DDP Specialty Electronic Materials US 8, LLC, priority 2017, published 2020).
Read-outs that look alike come from different tables or passages of the source.

Key:
[1] = test system: Candida albicans ATCC 10231; test: Synergy test: high resolution MIC microtiter plate assay, Potato Dextrose Broth; assay type: cell-based; conditions: C. albicans ATCC 10231, PDB, contact time 48 hours; for SI (Synergy Index, Qa/QA+Qb/QB): <1 synergy; for MIC: Candida albicans, ATCC10231, 25 °C
Text: (§1) One measure of synergism is the industrially accepted method described by Kull, F. C.; Eisman, P. C.; Sylwestrowicz, H. D. and Mayer, R. L., in Applied Microbiology 9:538-541 (1961), using the ratio determined by the formula:
(§2) Qa/QA+Qb/QB=Synergy Index (“SI”)
(§3) wherein: • QA=concentration of compound A (first component) in ppm, acting alone, which produced an end point (MIC of Compound A). • Qa=concentration of compound A in ppm, in the mixture, which produced an end point. • QB=concentration of compound B (second component) in ppm, acting alone, which produced an end point (MIC of Compound B). • Qb=concentration of compound B in ppm, in the mixture, which produced an end point.
(§4) When the sum of Qa/QA and Qb/QB is greater than one, antagonism is indicated. […] The lower the SI, the greater is the synergy shown by that particular mixture. The minimum inhibitory concentration (MIC) of a microbicide is the lowest concentration tested under a specific set of conditions that prevents the growth of the tested microorganisms.
(§5) Synergy tests were conducted using standard microtiter plate assays with media designed for optimal growth of the test microorganism. Potato Dextrose Broth (PDB medium) was used for testing yeast and mold. In this method, a wide range of combinations of microbicides and other personal care raw materials was tested by conducting high resolution MIC assays in the presence of lactic acid. High resolution MICs were determined by adding varying amounts of microbicide to one column of a microtitre plate and doing subsequent […] dilutions using an automated liquid handling system to obtain a series of closely spaced endpoints.
(§6) The synergy of the combinations of the present invention was determined against a yeast, Candida albicans (C. albicans ATCC 10231) and a mold, Aspergillus brasiliensis (A. brasiliensis ATCC 16404). The yeast and mold were used at concentrations of 5×10^5 cells per mL. These microorganisms are representative of natural contaminants in many consumer and industrial applications.
(§7) In this test, First Component (A) was lactic acid and the Second Component (B) was phenethyl alcohol.
• Candida albicans • ATCC 10231 • Potato Dextrose Broth • Contact Time=48 hours

[2] = test system: Aspergillus brasiliensis ATCC 16404; test: as above; assay type: cell-based; conditions: A. brasiliensis ATCC 16404, PDB, contact time 3 days; for SI (Synergy Index, Qa/QA+Qb/QB): <1 synergy; for MIC: Aspergillus brasiliensis, ATCC16404, 72 h, 25 °C
Text: as §1, §2, §3, §4, §5, §6, §7
• Aspergillus brasiliensis • ATCC 16404 • Potato Dextrose Broth • Contact Time=3 days

[3] = read-out: MIC for lactic acid alone (QA)
[4] = read-out: MIC for phenethyl alcohol alone (QB)

MIC [1, 3]	MIC [2, 3]	MIC [1, 4]	MIC [2, 4]	SMILES	SI (Synergy Index, Qa/QA+Qb/QB) [1]	SI (Synergy Index, Qa/QA+Qb/QB) [2]
6000 µg/mL	30000 µg/mL	–	–	CC(O)C(=O)O (centres unmarked) [Lactic Acid, 2-hydroxypropanoic acid]	1.00	1.00
–	–	10000 µg/mL	10000 µg/mL	OCCc1ccccc1 [Phenethyl Alcohol, 2-phenylethan-1-ol]	1.00	1.00
